PubChem BioAssay (NCI)
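Five compound concentrations were applied to cells in 96-well plates for 48 hours; endpoints were derived by simple linear interpolation of the resulting dose-response curve. The concentration for 50% growth inhibition is given as GI50. TGI marks complete inhibition of growth.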

Legend:
Assay in all cases: NCI-60 cell line screen, 48 h
[1] = test system: NCI-H23 lung
[2] = test system: LOX IMVI melanoma
[3] = test system: CCRF-CEM leukemia
[4] = test system: HCT-116 colon
[5] = test system: KM12 colon
[6] = test system: COLO 205 colon
[7] = test system: MOLT-4 leukemia
[8] = test system: K-562 leukemia
[9] = test system: OVCAR-3 ovarian
[10] = test system: DU-145 prostate

## COC(=O)NC(=Nc1ccc(Oc2ccccc2)cc1NC=O)NC(=O)OC
[1]
  TGI: > 100 µM
[2]
  TGI: > 100 µM
[3]
  TGI: > 100 µM
[4]
  TGI: 28 µM
[5]
  TGI: > 100 µM
[6]
  TGI: 0.618 µM
[7]
  TGI: > 100 µM
[8]
  TGI: > 100 µM

## COc1ccc2c(c1)[n+]([O-])c(-c1ccc(Br)cc1)c(N)[n+]2[O-]
[1]
  TGI: 55.3 µM
[3]
  TGI: > 100 µM
[9]
  TGI: > 100 µM
[4]
  TGI: > 100 µM
[5]
  TGI: > 100 µM
[6]
  TGI: 32.9 µM
[7]
  TGI: > 100 µM
[8]
  TGI: > 100 µM

## C[C@]12CCC[C@H](O)[C@H]1C[C@H](CO)CC2
[1]
  TGI: > 100 µM
[2]
  TGI: > 100 µM
[3]
  TGI: > 100 µM
[9]
  TGI: > 100 µM
[4]
  TGI: > 100 µM
[5]
  TGI: > 100 µM
[6]
  TGI: > 100 µM
[7]
  TGI: > 100 µM
[8]
  TGI: > 100 µM

## C/C=C(/CCC1NCCC2c3ccccc3NC12)[Si](C)(C)C (configuration not stated)
[1]
  TGI: 28.8 µM
[2]
  TGI: 20.2 µM
[3]
  TGI: 57 µM
[9]
  TGI: 24 µM
[4]
  TGI: 11.9 µM
[5]
  TGI: 15.6 µM
[6]
  TGI: 3.15 µM
[7]
  TGI: 16.4 µM
[8]
  TGI: 7.7 µM

## NCCCCCCCCCCCn1c2c(c3ccccc3c1=O)C(=O)c1ccccc1-2
[10]
  GI50: 4.6 µM
  TGI: 14.8 µM
[1]
  GI50: 11.6 µM
  TGI: 32 µM
[2]
  GI50: 5 µM
  TGI: 21.1 µM
[9]
  GI50: 2.1 µM
  TGI: 5.96 µM
[5]
  GI50: 3.95 µM
  TGI: 37.8 µM
[6]
  GI50: 2.24 µM
  TGI: 5.45 µM
[7]
  GI50: 1.97 µM
  TGI: 3.93 µM
[8]
  GI50: 2.31 µM
  TGI: 4.58 µM

## Cc1cc(Cl)ccc1NC(=O)CCCC(=O)C1CCC/C1=N\NC(=O)CC#N (configuration not stated)
[1]
  TGI: > 100 µM
[3]
  TGI: > 100 µM
[9]
  TGI: > 100 µM
[4]
  TGI: > 100 µM
[5]
  TGI: > 100 µM
[6]
  TGI: > 100 µM
[7]
  TGI: > 100 µM
[8]
  TGI: > 100 µM

## C1COCCOCCOCCOCCOCCO1.[Cl][Sn]([Cl])([c]1ccccc1)[c]1ccccc1
[1]
  GI50: 2.97 µM
  TGI: 8.84 µM
[2]
  GI50: 2.36 µM
  TGI: 4.77 µM
[9]
  GI50: 4.88 µM
  TGI: 15.5 µM
[4]
  GI50: 5.53 µM
  TGI: 17.3 µM
[5]
  GI50: 12.6 µM
  TGI: 26.4 µM
[6]
  GI50: 1.83 µM
  TGI: 4.34 µM
[7]
  GI50: 3.21 µM
  TGI: 14.5 µM
[8]
  GI50: 2.44 µM
  TGI: 10.2 µM

## CCOC(=O)C1=C(C)N(Cc2ccccc2)C(=O)C1CC#N (configuration not stated)
[1]
  TGI: > 100 µM
[3]
  TGI: > 100 µM
[9]
  TGI: > 100 µM
[4]
  TGI: > 100 µM
[5]
  TGI: > 100 µM
[6]
  TGI: > 100 µM
[7]
  TGI: > 100 µM
[8]
  TGI: > 100 µM

## Cn1cc(-c2csc(-c3cn(CCCCN4CCCCC4)c4ccc(F)cc34)n2)c2cccnc21
[10]
  GI50: 1.76 µM
  TGI: 3.14 µM
[1]
  GI50: 1.69 µM
  TGI: 3.2 µM
[9]
  GI50: 1.77 µM
  TGI: 3.17 µM

## Cc1cccc2nc3cccc(C(=O)NCCNCCNCCNC(=O)c4cccc5nc6cccc(C)c6nc45)c3nc12
[1]
  GI50: < 0.012 µM
  TGI: 0.938 µM
[2]
  GI50: < 0.01 µM
  TGI: 0.53 µM
[3]
  GI50: 0.0859 µM
  TGI: 2.86 µM
[9]
  GI50: < 0.01 µM
  TGI: 2.91 µM
[4]
  GI50: < 0.01 µM
  TGI: > 35.8 µM
[5]
  GI50: < 0.01 µM
  TGI: 3.42 µM
[6]
  GI50: < 0.01 µM
  TGI: 0.7 µM
[7]
  GI50: < 0.01 µM
  TGI: 14.7 µM
[8]
  GI50: < 0.01 µM
  TGI: 9.37 µM

## Cn1c2ccccc2c(=O)c2c(O)cc3c(c21)CC(C1(C)CO1)O3 (configuration not stated)
[10]
  TGI: 36.1 µM
[1]
  TGI: 4.14 µM
[2]
  TGI: 0.0613 µM
[9]
  TGI: 12.9 µM
[4]
  TGI: 3.06 µM
[5]
  TGI: 6.52 µM
[6]
  TGI: 19.7 µM
[7]
  TGI: 1.45 µM
[8]
  TGI: 7.84 µM

## NC(=O)c1ncn(CCN2CCN(C(=O)NCCCCCCNC(=O)N3CCN(CCn4cnc(C(N)=O)c4N)CC3)CC2)c1N
[1]
  TGI: > 100 µM
[2]
  TGI: > 100 µM
[3]
  TGI: > 100 µM
[9]
  TGI: > 100 µM
[4]
  TGI: > 100 µM
[5]
  TGI: > 100 µM
[6]
  TGI: > 100 µM
[7]
  TGI: > 100 µM
[8]
  TGI: > 100 µM

## O=C(/C=C/c1ccccc1Cl)c1cccc2ccccc12
[1]
  TGI: 28.1 µM
[2]
  TGI: 24.3 µM
[3]
  TGI: 45.2 µM
[9]
  TGI: 15 µM
[4]
  TGI: 12.8 µM
[5]
  TGI: 16.8 µM
[6]
  TGI: 33.3 µM
[7]
  TGI: 5.59 µM
[8]
  TGI: > 100 µM

## CCCCCc1cc[n+](CC(=O)c2ccc([N+](=O)[O-])cc2)cc1
[10]
  GI50: 8.72 µM
  TGI: 37.8 µM
[1]
  GI50: 2.89 µM
  TGI: 11.9 µM
[2]
  GI50: 8.15 µM
  TGI: 22.1 µM
[9]
  GI50: 2.78 µM
  TGI: 10.4 µM
[4]
  GI50: 3.14 µM
  TGI: 11.4 µM
[5]
  GI50: 3.69 µM
  TGI: 14.1 µM
[6]
  GI50: 1.62 µM
  TGI: 2.97 µM
